BindingDB's records for doi:10.1016/s0960-894x(03)00205-1 (Abbott Laboratories, 2003)

Assay: Potassium channel opening activity in vitro using LtK cells transfected with Kir6.2/SUR2B exon 17

Compound | EC50 [µM]
O=C(Nc1ccc(Cl)cc1)Nc1c(C(O)(C(F)(F)F)C(F)(F)F)ccc2ccccc12 [1-(4-Chloro-phenyl)-3-[2-(2,2,2-trifluoro-1-hydroxy-1-trifluoromethyl-ethyl)-naphthalen-1-yl]-urea] | 0.276
O=C(NCCCCCCCl)Nc1c(C(O)(C(F)(F)F)C(F)(F)F)ccc2ccccc12 [1-(6-Chloro-hexyl)-3-[2-(2,2,2-trifluoro-1-hydroxy-1-trifluoromethyl-ethyl)-naphthalen-1-yl]-urea] | 4.84
O=C(Nc1c(C(O)(C(F)(F)F)C(F)(F)F)ccc2ccccc12)c1cccc(Cl)c1Cl [2,3-Dichloro-N-[2-(2,2,2-trifluoro-1-hydroxy-1-trifluoromethyl-ethyl)-naphthalen-1-yl]-benzamide] | > 10
O=C(CC1CCCC1)Nc1c(C(O)(C(F)(F)F)C(F)(F)F)ccc2ccccc12 [2-Cyclopentyl-N-[2-(2,2,2-trifluoro-1-hydroxy-1-trifluoromethyl-ethyl)-naphthalen-1-yl]-acetamide] | 0.081
CCC(CC)C(=O)Nc1c(C(O)(C(F)(F)F)C(F)(F)F)ccc2ccccc12 [2-Ethyl-N-[2-(2,2,2-trifluoro-1-hydroxy-1-trifluoromethyl-ethyl)-naphthalen-1-yl]-butyramide] | 4.34
CCC(C)C(=O)Nc1c(C(O)(C(F)(F)F)C(F)(F)F)ccc2ccccc12 (stereo not given) [2-Methyl-N-[2-(2,2,2-trifluoro-1-hydroxy-1-trifluoromethyl-ethyl)-naphthalen-1-yl]-butyramide] | 177
CCCC(C)C(=O)Nc1c(C(O)(C(F)(F)F)C(F)(F)F)ccc2ccccc12 (stereo not given) [2-Methyl-pentanoic acid [2-(2,2,2-trifluoro-1-hydroxy-1-trifluoromethyl-ethyl)-naphthalen-1-yl]-amide] | > 10
O=C(Nc1c(C(O)(C(F)(F)F)C(F)(F)F)ccc2ccccc12)c1cc(Cl)cc(Cl)c1 [3,5-Dichloro-N-[2-(2,2,2-trifluoro-1-hydroxy-1-trifluoromethyl-ethyl)-naphthalen-1-yl]-benzamide] | 0.306
CC(C)=CC(=O)Nc1c(C(O)(C(F)(F)F)C(F)(F)F)ccc2ccccc12 [3-Methyl-but-2-enoic acid [2-(2,2,2-trifluoro-1-hydroxy-1-trifluoromethyl-ethyl)-naphthalen-1-yl]-amide] | 0.046
CC(C)CCC(=O)Nc1c(C(O)(C(F)(F)F)C(F)(F)F)ccc2ccccc12 [4-Methyl-pentanoic acid [2-(2,2,2-trifluoro-1-hydroxy-1-trifluoromethyl-ethyl)-naphthalen-1-yl]-amide] | 0.049
C/C=C/C(=O)Nc1c(C(O)(C(F)(F)F)C(F)(F)F)ccc2ccccc12 [But-2-enoic acid [2-(2,2,2-trifluoro-1-hydroxy-1-trifluoromethyl-ethyl)-naphthalen-1-yl]-amide] | 0.072
O=C(Nc1c(C(O)(C(F)(F)F)C(F)(F)F)ccc2ccccc12)C1CCC1 [Cyclobutanecarboxylic acid [2-(2,2,2-trifluoro-1-hydroxy-1-trifluoromethyl-ethyl)-naphthalen-1-yl]-amide] | 0.045
O=C(Nc1c(C(O)(C(F)(F)F)C(F)(F)F)ccc2ccccc12)C1CCCC1 [Cyclopentanecarboxylic acid [2-(2,2,2-trifluoro-1-hydroxy-1-trifluoromethyl-ethyl)-naphthalen-1-yl]-amide] | 0.495
O=C(Nc1c(C(O)(C(F)(F)F)C(F)(F)F)ccc2ccccc12)C1CC1 [Cyclopropanecarboxylic acid [2-(2,2,2-trifluoro-1-hydroxy-1-trifluoromethyl-ethyl)-naphthalen-1-yl]-amide] | 0.751
O=C(Nc1c(C(O)(C(F)(F)F)C(F)(F)F)ccc2ccccc12)c1ccco1 [Furan-2-carboxylic acid [2-(2,2,2-trifluoro-1-hydroxy-1-trifluoromethyl-ethyl)-naphthalen-1-yl]-amide] | 0.009
CC(=O)Nc1c(C(O)(C(F)(F)F)C(F)(F)F)ccc2ccccc12 [N-[2-(2,2,2-Trifluoro-1-hydroxy-1-trifluoromethyl-ethyl)-naphthalen-1-yl]-acetamide] | 0.018
CCCC(=O)Nc1c(C(O)(C(F)(F)F)C(F)(F)F)ccc2ccccc12 [N-[2-(2,2,2-Trifluoro-1-hydroxy-1-trifluoromethyl-ethyl)-naphthalen-1-yl]-butyramide] | 0.131

Continued, values first:

EC50 [µM] | Compound
2.04 | O=C(Nc1c(C(O)(C(F)(F)F)C(F)(F)F)ccc2ccccc12)c1ccccc1Cl [2-Chloro-N-[2-(2,2,2-trifluoro-1-hydroxy-1-trifluoromethyl-ethyl)-naphthalen-1-yl]-benzamide]
5.55 | Cc1ccccc1C(=O)Nc1c(C(O)(C(F)(F)F)C(F)(F)F)ccc2ccccc12 [2-Methyl-N-[2-(2,2,2-trifluoro-1-hydroxy-1-trifluoromethyl-ethyl)-naphthalen-1-yl]-benzamide]
0.194 | O=C(Nc1c(C(O)(C(F)(F)F)C(F)(F)F)ccc2ccccc12)c1ccc(Cl)c(Cl)c1 [3,4-Dichloro-N-[2-(2,2,2-trifluoro-1-hydroxy-1-trifluoromethyl-ethyl)-naphthalen-1-yl]-benzamide]
0.08 | O=C(Nc1c(C(O)(C(F)(F)F)C(F)(F)F)ccc2ccccc12)c1cccc(Br)c1 [3-Bromo-N-[2-(2,2,2-trifluoro-1-hydroxy-1-trifluoromethyl-ethyl)-naphthalen-1-yl]-benzamide]
0.098 | O=C(Nc1c(C(O)(C(F)(F)F)C(F)(F)F)ccc2ccccc12)c1cccc(Cl)c1 [3-Chloro-N-[2-(2,2,2-trifluoro-1-hydroxy-1-trifluoromethyl-ethyl)-naphthalen-1-yl]-benzamide]
0.012 | N#Cc1cccc(C(=O)Nc2c(C(O)(C(F)(F)F)C(F)(F)F)ccc3ccccc23)c1 [3-Cyano-N-[2-(2,2,2-trifluoro-1-hydroxy-1-trifluoromethyl-ethyl)-naphthalen-1-yl]-benzamide]
0.044 | O=C(Nc1c(C(O)(C(F)(F)F)C(F)(F)F)ccc2ccccc12)c1cccc(F)c1 [3-Fluoro-N-[2-(2,2,2-trifluoro-1-hydroxy-1-trifluoromethyl-ethyl)-naphthalen-1-yl]-benzamide]
0.185 | COc1cccc(C(=O)Nc2c(C(O)(C(F)(F)F)C(F)(F)F)ccc3ccccc23)c1 [3-Methoxy-N-[2-(2,2,2-trifluoro-1-hydroxy-1-trifluoromethyl-ethyl)-naphthalen-1-yl]-benzamide]
0.023 | Cc1cccc(C(=O)Nc2c(C(O)(C(F)(F)F)C(F)(F)F)ccc3ccccc23)c1 [3-Methyl-N-[2-(2,2,2-trifluoro-1-hydroxy-1-trifluoromethyl-ethyl)-naphthalen-1-yl]-benzamide]
0.117 | O=C(Nc1c(C(O)(C(F)(F)F)C(F)(F)F)ccc2ccccc12)c1cccc([N+](=O)[O-])c1 [3-Nitro-N-[2-(2,2,2-trifluoro-1-hydroxy-1-trifluoromethyl-ethyl)-naphthalen-1-yl]-benzamide]
1.75 | O=C(CCc1ccccc1)Nc1c(C(O)(C(F)(F)F)C(F)(F)F)ccc2ccccc12 [3-Phenyl-N-[2-(2,2,2-trifluoro-1-hydroxy-1-trifluoromethyl-ethyl)-naphthalen-1-yl]-propionamide]
0.047 | O=C(Nc1c(C(O)(C(F)(F)F)C(F)(F)F)ccc2ccccc12)c1ccc(Br)cc1 [4-Bromo-N-[2-(2,2,2-trifluoro-1-hydroxy-1-trifluoromethyl-ethyl)-naphthalen-1-yl]-benzamide]
0.57 | O=C(Nc1c(C(O)(C(F)(F)F)C(F)(F)F)ccc2ccccc12)c1ccc(Cl)cc1 [4-Chloro-N-[2-(2,2,2-trifluoro-1-hydroxy-1-trifluoromethyl-ethyl)-naphthalen-1-yl]-benzamide]
0.07 | O=C(Nc1c(C(O)(C(F)(F)F)C(F)(F)F)ccc2ccccc12)c1ccc(F)cc1 [4-Fluoro-N-[2-(2,2,2-trifluoro-1-hydroxy-1-trifluoromethyl-ethyl)-naphthalen-1-yl]-benzamide]
0.154 | O=C(Nc1c(C(O)(C(F)(F)F)C(F)(F)F)ccc2ccccc12)c1ccc(I)cc1 [4-Iodo-N-[2-(2,2,2-trifluoro-1-hydroxy-1-trifluoromethyl-ethyl)-naphthalen-1-yl]-benzamide]
0.417 | COc1ccc(C(=O)Nc2c(C(O)(C(F)(F)F)C(F)(F)F)ccc3ccccc23)cc1 [4-Methoxy-N-[2-(2,2,2-trifluoro-1-hydroxy-1-trifluoromethyl-ethyl)-naphthalen-1-yl]-benzamide]
0.076 | Cc1ccc(C(=O)Nc2c(C(O)(C(F)(F)F)C(F)(F)F)ccc3ccccc23)cc1 [4-Methyl-N-[2-(2,2,2-trifluoro-1-hydroxy-1-trifluoromethyl-ethyl)-naphthalen-1-yl]-benzamide]
> 10 | O=C(Nc1c(C(O)(C(F)(F)F)C(F)(F)F)ccc2ccccc12)c1cc2ccccc2s1 [Benzo[b]thiophene-2-carboxylic acid [2-(2,2,2-trifluoro-1-hydroxy-1-trifluoromethyl-ethyl)-naphthalen-1-yl]-amide]
> 10 | O=C(Nc1c(C(O)(C(F)(F)F)C(F)(F)F)ccc2ccccc12)c1ccc(-c2ccccc2)cc1 [Biphenyl-4-carboxylic acid [2-(2,2,2-trifluoro-1-hydroxy-1-trifluoromethyl-ethyl)-naphthalen-1-yl]-amide]
0.084 | O=C(Nc1c(C(O)(C(F)(F)F)C(F)(F)F)ccc2ccccc12)c1cccc(C(F)(F)F)c1 [N-[2-(2,2,2-Trifluoro-1-hydroxy-1-trifluoromethyl-ethyl)-naphthalen-1-yl]-3-trifluoromethyl-benzamide]
> 10 | O=C(Nc1c(C(O)(C(F)(F)F)C(F)(F)F)ccc2ccccc12)c1ccc(OC(F)(F)F)cc1 [N-[2-(2,2,2-Trifluoro-1-hydroxy-1-trifluoromethyl-ethyl)-naphthalen-1-yl]-4-trifluoromethoxy-benzamide]
0.16 | O=C(Nc1c(C(O)(C(F)(F)F)C(F)(F)F)ccc2ccccc12)c1ccc(C(F)(F)F)cc1 [N-[2-(2,2,2-Trifluoro-1-hydroxy-1-trifluoromethyl-ethyl)-naphthalen-1-yl]-4-trifluoromethyl-benzamide]
0.044 | O=C(Nc1c(C(O)(C(F)(F)F)C(F)(F)F)ccc2ccccc12)c1ccccc1 [N-[2-(2,2,2-Trifluoro-1-hydroxy-1-trifluoromethyl-ethyl)-naphthalen-1-yl]-benzamide]
